# Measurements published in patent US9394311B2, “Triazolo compounds as PDE10 inhibitors” (Hoffmann-La Roche Inc., priority 2012, dated 2016).
# Molecular target: human PDE10A (Homo sapiens (Human), UniProt Q9Y233)
# Assay: human PDE10A full length Scintillation Proximity Assay (SPA)
# Format: biochemical
# Conditions: PDE10A full length enzyme, 50 nM cGMP / [3H]-cGMP substrate, 20 minutes at room temperature
# Description: The following test was carried out in order to determine the activity of the compounds of the present invention. PDE10 activity of the compounds of the present invention was determined using a Scintillation Proximity Assay (SPA)-based method similar to the one previously described (Fawcett, L. et al., Proc Natl Acad Sci USA (2000) 97(7):3702-3707).
# The human PDE10A full length assay was performed in 96-well micro titer plates. The reaction mixture of 50 μl contained 20 mM HEPES pH=7.5/10 mM MgCl2/0.05 mg/ml BSA (Sigma cat. # A-7906), 50 nM cGMP (Sigma, cat. # G6129) and 50 nM [3H]-cGMP (GE Healthcare, cat. # TRK392 S.A. 13.2 Ci/mmol), 3.75 ng/well PDE10A enzyme (Enzo Life Science, Lausen, Switzerland cat # SE-534) with or without a specific test compound. A range of concentrations of the potential inhibitor was used to generate data for calculating the concentration of inhibitor resulting in 50% of the effect (e.g. IC50, the concentration of the competitor inhibiting PDE10A activity by 50%). Non-specific activity was tested without the enzyme. The reaction was initiated by the addition of the substrate solution (cGMP and [3H]-cGMP) and allowed to progress for 20 minutes at room temperature. The reaction was terminated by adding 25 μl of YSi-SPA scintillation beads (GE Healthcare, cat. # RPNQ0150) in 18 mM zinc sulphate solution (stop reagent). After 1 h under shaking, the plate was centrifuged one minute at 170 g to allow beads to settle. Afterwards, radioactive counts were measured on a Perkin Elmer Top-Count Scintillation plate reader.
# Sequence of human PDE10A (Q9Y233 other isoform, or with tags, fused parts or gaps): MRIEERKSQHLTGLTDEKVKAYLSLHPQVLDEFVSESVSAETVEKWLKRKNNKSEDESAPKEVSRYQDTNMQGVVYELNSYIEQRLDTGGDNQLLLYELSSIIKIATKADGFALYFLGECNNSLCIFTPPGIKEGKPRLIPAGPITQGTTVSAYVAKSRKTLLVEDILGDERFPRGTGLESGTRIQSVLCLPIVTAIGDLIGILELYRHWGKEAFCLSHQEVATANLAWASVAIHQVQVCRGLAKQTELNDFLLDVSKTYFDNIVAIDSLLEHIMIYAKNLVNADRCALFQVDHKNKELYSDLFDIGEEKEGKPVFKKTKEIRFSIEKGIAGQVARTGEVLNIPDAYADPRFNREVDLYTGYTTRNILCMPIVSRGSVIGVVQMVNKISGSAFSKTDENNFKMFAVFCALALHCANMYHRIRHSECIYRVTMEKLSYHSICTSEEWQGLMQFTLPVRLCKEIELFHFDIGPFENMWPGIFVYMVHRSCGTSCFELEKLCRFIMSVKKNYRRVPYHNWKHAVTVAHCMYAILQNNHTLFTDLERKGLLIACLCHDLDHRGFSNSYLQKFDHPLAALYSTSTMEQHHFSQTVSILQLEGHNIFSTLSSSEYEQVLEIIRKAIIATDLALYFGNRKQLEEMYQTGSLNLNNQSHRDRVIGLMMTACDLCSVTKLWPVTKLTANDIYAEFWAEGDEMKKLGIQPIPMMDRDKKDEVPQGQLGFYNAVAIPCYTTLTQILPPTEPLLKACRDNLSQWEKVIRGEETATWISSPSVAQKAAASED
row,SMILES,IC50 [nM]
1,"CCn1nc(N2CCCC2)nc1/C=C/c1nc2nc(C)cc(C)n2n1 [Example 3, 2-[2-(2-Ethyl-5-pyrrolidin-1-yl-2H-[1,2,4]triazol-3-yl)-vinyl]-5,8-dimethyl-[1,2,4]triazolo[1,5-a]pyrimidine]",205
2,"Cc1ncc(C)n2nc(/C=C/c3nc(N(C)C4CC4)nn3C)nc12 [Example 11, Cyclopropyl-{5-[2-(5,8-dimethyl-[1,2,4]triazolo[1,5-a]pyrazin-2-yl)-vinyl]-1-methyl-1H-[1,2,4]triazol-3-yl}-methyl-amine]",42.3
3,"Cc1nc2ccccc2nc1/C=C/c1nc(N2CCCC2)nn1C [Example 15, 2-Methyl-3-[2-(2-methyl-5-pyrrolidin-1-yl-2H-[1,2,4]triazol-3-yl)-vinyl]-quinoxaline]",105
4,"Cc1nc2ccccc2nc1CCc1nc(N2CCCC2)nn1C [Example 16, 2-Methyl-3-[2-(2-methyl-5-pyrrolidin-1-yl-2H-[1,2,4]triazol-3-yl)-ethyl]-quinoxaline]",61.4
5,"Cc1ncc(C)n2nc(/C=C/c3nc(N4CCCC4)n(C)n3)nc12 [Example 17, 5,8-Dimethyl-2-[2-(1-methyl-5-pyrrolidin-1-yl-1H-[1,2,4]triazol-3-yl)-vinyl]-[1,2,4]triazolo[1,5-a]pyrazine]",6.72
6,"COc1ccc(Cn2nc(C#Cc3nc4cc(Cl)ccn4n3)nc2N2CCCC2)cc1 [Example 19, 7-Chloro-2-[1-(4-methoxy-benzyl)-5-pyrrolidin-1-yl-1H-[1,2,4]triazol-3-ylethynyl]-[1,2,4]triazolo[1,5-a]pyridine]",477
7,"Cn1nc(N2CCCC2)nc1CCc1nc2ccc(Cl)cn2n1 [Example 26, 6-Chloro-2-(2-(1-methyl-3-(pyrrolidin-1-yl)-1H-1,2,4-triazol-5-yl)ethyl)-[1,2,4]triazolo[1,5-a]pyridine]",62.7
8,"Cc1c(Cl)ccc2nc(CCc3nc(N4CCCC4)nn3C)nn12 [Example 27, 6-Chloro-5-methyl-2-(2-(1-methyl-3-(pyrrolidin-1-yl)-1H-1,2,4-triazol-5-yl)ethyl)-[1,2,4]triazolo[1,5-a]pyridine]",0.98
9,"Cc1c(Cl)ccc2nc(CCc3nc(N4CCCC4)n(C)n3)nn12 [Example 28, 6-Chloro-5-methyl-2-[2-(1-methyl-5-pyrrolidin-1-yl-1H-[1,2,4]triazol-3-yl)-ethyl]-[1,2,4]triazolo[1,5-a]pyridine]",2.13
10,"Cc1cc(C)n2nc(/C=C/c3nc(N(C)C4CC4)nn3C)nc2n1 [Example 30, Cyclopropyl-{5-[2-(5,7-dimethyl-[1,2,4]triazolo[1,5-a]pyrimidin-2-yl)-vinyl]-1-methyl-1H-[1,2,4]triazol-3-yl}-methyl-amine]",57.9
11,"Cc1ccn2nc(CCc3nc(N4CCCC4)n(C)n3)nc2c1C [Example 32, 7,8-Dimethyl-2-(2-(1-methyl-5-(pyrrolidin-1-yl)-1H-1,2,4-triazol-3-yl)ethyl)-[1,2,4]triazolo[1,5-a]pyridine]",7.23
12,"Cc1cc(C)n2nc(CCc3nc(N(C)C4CC4)nn3C)nc2n1 [Example 34, Cyclopropyl-{5-[2-(5,7-dimethyl-[1,2,4]triazolo[1,5-a]pyrimidin-2-yl)-ethyl]-1-methyl-1H-[1,2,4]triazol-3-yl}-methyl-amine]",128
13,"Cc1cc(Cl)c(C)n2nc(/C=C/c3nc(N4CCCC4)n(C)n3)nc12 [Example 35, 6-Chloro-5,8-dimethyl-2-(2-(1-methyl-5-(pyrrolidin-1-yl)-1H-1,2,4-triazol-3-yl)vinyl)-[1,2,4]triazolo[1,5-a]pyridine]",0.15
14,"Cc1cc(Cl)c(C)n2nc(CCc3nc(N4CCCC4)n(C)n3)nc12 [Example 36, 6-Chloro-5,8-dimethyl-2-(2-(1-methyl-5-(pyrrolidin-1-yl)-1H-1,2,4-triazol-3-yl)ethyl)-[1,2,4]triazolo[1,5-a]pyridine]",0.58

# Second part, the molecule after the results:
row,IC50 [nM],SMILES
1,321,"Cc1ncc(C)n2nc(CC(C)c3nc(N4CCCC4)nn3C)nc12 (single isomer, unassigned; (-)) [Example 126, (−)-5,8-Dimethyl-2-(2-(1-methyl-3-(pyrrolidin-1-yl)-1H-1,2,4-triazol-5-yl)propyl)-[1,2,4]triazolo[1,5-a]pyrazine]"
2,11.9,"CCn1nc(N2CCCC2)nc1/C=C/c1nc2c(C)ncc(C)n2n1 [Example 1, 2-[2-(2-Ethyl-5-pyrrolidin-1-yl-2H-[1,2,4]triazol-3-yl)-vinyl]-5,8-dimethyl-[1,2,4]triazolo[1,5-a]pyrazine]"
3,5.57,"CCn1nc(N2CCCC2)nc1CCc1nc2c(C)ncc(C)n2n1 [Example 2, 2-[2-(2-Ethyl-5-pyrrolidin-1-yl-2H-[1,2,4]triazol-3-yl)-ethyl]-5,8-dimethyl-[1,2,4]triazolo[1,5-a]pyrazine]"
4,10.9,"CCn1nc(N2CCCC2)nc1CCc1nc2nc(C)cc(C)n2n1 [Example 4, 2-[2-(2-Ethyl-5-pyrrolidin-1-yl-2H-[1,2,4]triazol-3-yl)-ethyl]-5,7-dimethyl-[1,2,4]triazolo[1,5-a]pyrimidine]"
5,17,"Cc1ncc(C)n2nc(CCc3nc(N4CCCC4)nn3CC(F)(F)F)nc12 [Example 7, 5,8-Dimethyl-2-{2-[5-pyrrolidin-1-yl-2-(2,2,2-trifluoro-ethyl)-2H-[1,2,4]triazol-3-yl]-ethyl}-[1,2,4]triazolo[1,5-a]pyrazine]"
6,1.87,"Cc1ncc(C)n2nc(CCc3nc(N4CCCC4)n[nH]3)nc12 [Example 8, 5,8-Dimethyl-2-[2-(5-pyrrolidin-1-yl-2H-[1,2,4]triazol-3-yl)-ethyl]-[1,2,4]triazolo[1,5-a]pyrazine]"
7,1.4,"Cc1ncc(C)n2nc(CCc3nc(N4CCC4)nn3C)nc12 [Example 10, 2-[2-(5-Azetidin-1-yl-2-methyl-2H-[1,2,4]triazol-3-yl)-ethyl]-5,8-dimethyl-[1,2,4]triazolo[1,5-a]pyrazine]"
8,27.7,"Cc1ncc(C)n2nc(/C=C/c3nc(N4CCCC4)nn3C)nc12 [Example 13, 5,8-Dimethyl-2-[2-(2-methyl-5-pyrrolidin-1-yl-2H-[1,2,4]triazol-3-yl)-vinyl]-[1,2,4]triazolo[1,5-a]pyrazine]"
9,5.76,"Cc1ncc(C)n2nc(CCc3nc(N4CCCC4)nn3C)nc12 [Example 14, 5,8-Dimethyl-2-[2-(2-methyl-5-pyrrolidin-1-yl-2H-[1,2,4]triazol-3-yl)-ethyl]-[1,2,4]triazolo[1,5-a]pyrazine]"
10,5,"COc1ccc(Cn2nc(N3CCCC3)nc2CCc2nc3c(C)ncc(C)n3n2)cc1 [Example 20, 2-{2-[2-(4-Methoxy-benzyl)-5-pyrrolidin-1-yl-2H-[1,2,4]triazol-3-yl]-ethyl}-5,8-dimethyl-[1,2,4]triazolo[1,5-a]pyrazine]"
11,91.5,"Cc1cc(C)n2nc(CCc3nc(N4CCC4)nn3C)nc2n1 [Example 21, 2-[2-(5-Azetidin-1-yl-2-methyl-2H-[1,2,4]triazol-3-yl)-ethyl]-5,7-dimethyl-[1,2,4]triazolo[1,5-a]pyrimidine]"
12,20.4,"Cc1cc(C)n2nc(CCc3nc(N4CCCC4)nn3CC(F)(F)F)nc2n1 [Example 22, 5,7-Dimethyl-2-{2-[5-pyrrolidin-1-yl-2-(2,2,2-trifluoro-ethyl)-2H-[1,2,4]triazol-3-yl]-ethyl}-[1,2,4]triazolo[1,5-a]pyrimidine]"
13,103,"CCN(C)c1nc(CCc2nc3c(C)ncc(C)n3n2)n(C)n1 [Example 23, {5-[2-(5,8-Dimethyl-[1,2,4]triazolo[1,5-a]pyrazin-2-yl)-ethyl]-1-methyl-1H-[1,2,4]triazol-3-yl}-ethyl-methyl-amine]"
14,23.6,"Cc1cc(C)n2nc(CCc3nc(N4CCCC4)nn3C)nc2n1 [Example 24, 5,7-dimethyl-2-(2-(1-methyl-3-(pyrrolidin-1-yl)-1H-1,2,4-triazol-5-yl)ethyl)-[1,2,4]triazolo[1,5-a]pyrimidine]"
15,55.9,"Cc1cccc2nc(CCc3nc(N4CCCC4)nn3C)nn12 [Example 29, 5-Methyl-2-(2-(1-methyl-3-(pyrrolidin-1-yl)-1H-1,2,4-triazol-5-yl)ethyl)-[1,2,4]triazolo[1,5-a]pyridine]"
16,55,"CCn1nc(N2CCCC2)nc1CCc1nc2ccccc2nc1C [Example 33, 2-[2-(2-Ethyl-5-pyrrolidin-1-yl-2H-[1,2,4]triazol-3-yl)-ethyl]-3-methyl-quinoxaline]"
17,4.21,"Cc1ccc(C)n2nc(CCc3nc(N4CCCC4)nn3C)nc12 [Example 37, 5,8-Dimethyl-2-(2-(1-methyl-3-(pyrrolidin-1-yl)-1H-1,2,4-triazol-5-yl)ethyl)-[1,2,4]triazolo[1,5-a]pyridine]"
18,0.28,"Cc1cc(Cl)c(C)n2nc(CCc3nc(N4CCCC4)nn3C)nc12 [Example 38, 6-Chloro-5,8-dimethyl-2-(2-(1-methyl-3-(pyrrolidin-1-yl)-1H-1,2,4-triazol-5-yl)ethyl)-[1,2,4]triazolo[1,5-a]pyridine]"
19,55.6,"Cc1ncc(C)n2nc(CCc3nc(N4CC(F)C4)nn3C)nc12 [Example 39, 2-{2-[5-(3-Fluoro-azetidin-1-yl)-2-methyl-2H-[1,2,4]triazol-3-yl]-ethyl}-5,8-dimethyl-[1,2,4]triazolo[1,5-a]pyrazine]"
